In paper PMC10994248 (The Oncologist, 2024):

Assay: Phase I safety and tolerability (TEAEs, DLTs, MTD, DRDE) in patients with advanced solid tumors
Assay type: in vivo, human
Details: for DLT: Hypertension / DLT: Palmar-plantar erythrodysesthesia syndrome / DLT: Skin and subcutaneous tissue disorders / DLT: Vascular disorders / Subjects who had a dose-limiting toxicity: dose-determining set
Description: This 2-part, open-label, phase I study was conducted at the MD Anderson Cancer Center in Texas, USA and the Cancer Hospital Chinese Academy of Medical Sciences in Beijing, China. […] This was followed by a dose-expansion phase, the primary objective of which was to confirm the safety and tolerability of tinengotinib at the DRDE. Secondary objectives were to characterize the pharmacokinetics and preliminary efficacy of tinengotinib.
Dose escalation was guided by an adaptive Bayesian logistic regression model using the Escalation with Overdose Control principle.[6],[7] Study data (including DLTs, grade 2 adverse events during cycle 1, and pharmacokinetic data) were reviewed by the sponsor and trial investigators at each dose level and used to guide dose-escalation decisions. MTD was based on the Bayesian model, but with consideration given to available safety and tolerability data. DRDE was based on an evaluation of all available data (safety, clinical activity, and pharmacokinetics).
After determination of the DRDE, the dose-expansion phase was opened to further characterize safety and pharmacokinetics, and to assess preliminary efficacy.
Routine safety assessments of adverse events, laboratory tests (hematology, coagulation, biochemistry, and urinalysis), vital signs, and 12-lead electrocardiograms were performed. Adverse events were graded according to the National Cancer Institute Common Terminology Criteria for Adverse Events (CTCAE), version 5.0.

tinengotinib
DLT: Hypertension (1 mg (n=1)): 0 No. (%)
DLT: Palmar-plantar erythrodysesthesia syndrome (1 mg (n=1)): 0 No. (%)
DLT: Skin and subcutaneous tissue disorders (1 mg (n=1)): 0 No. (%)
DLT: Vascular disorders (1 mg (n=1)): 0 No. (%)
Subjects who had a dose-limiting toxicity (1 mg (n=1)): 0 No. (%)
DLT: Hypertension (3 mg (n=1)): 0 No. (%)
DLT: Palmar-plantar erythrodysesthesia syndrome (3 mg (n=1)): 0 No. (%)
DLT: Skin and subcutaneous tissue disorders (3 mg (n=1)): 0 No. (%)
DLT: Vascular disorders (3 mg (n=1)): 0 No. (%)
Subjects who had a dose-limiting toxicity (3 mg (n=1)): 0 No. (%)
DLT: Hypertension (5 mg (n=4)): 0 No. (%)
DLT: Palmar-plantar erythrodysesthesia syndrome (5 mg (n=4)): 0 No. (%)
DLT: Skin and subcutaneous tissue disorders (5 mg (n=4)): 0 No. (%)
DLT: Vascular disorders (5 mg (n=4)): 0 No. (%)
Subjects who had a dose-limiting toxicity (5 mg (n=4)): 0 No. (%)
DLT: Hypertension (8 mg (n=9)): 0 No. (%)
DLT: Palmar-plantar erythrodysesthesia syndrome (8 mg (n=9)): 1 (11.1) No. (%)
DLT: Skin and subcutaneous tissue disorders (8 mg (n=9)): 1 (11.1) No. (%)
DLT: Vascular disorders (8 mg (n=9)): 0 No. (%)
Subjects who had a dose-limiting toxicity (8 mg (n=9)): 1 (11.1) No. (%)
DLT: Hypertension (10 mg (n=3)): 0 No. (%)
DLT: Palmar-plantar erythrodysesthesia syndrome (10 mg (n=3)): 0 No. (%)
DLT: Skin and subcutaneous tissue disorders (10 mg (n=3)): 0 No. (%)
DLT: Vascular disorders (10 mg (n=3)): 0 No. (%)
Subjects who had a dose-limiting toxicity (10 mg (n=3)): 0 No. (%)
DLT: Hypertension (12 mg (n=9)): 0 No. (%)
DLT: Palmar-plantar erythrodysesthesia syndrome (12 mg (n=9)): 0 No. (%)
DLT: Skin and subcutaneous tissue disorders (12 mg (n=9)): 0 No. (%)
DLT: Vascular disorders (12 mg (n=9)): 0 No. (%)
Subjects who had a dose-limiting toxicity (12 mg (n=9)): 0 No. (%)
DLTs during the dose-expansion phase (12 mg dose): no other DLTs
DLT: Hypertension (15 mg (n=5)): 2 (40.0) No. (%)
DLT: Palmar-plantar erythrodysesthesia syndrome (15 mg (n=5)): 0 No. (%)
DLT: Skin and subcutaneous tissue disorders (15 mg (n=5)): 0 No. (%)
DLT: Vascular disorders (15 mg (n=5)): 2 (40.0) No. (%)
Subjects who had a dose-limiting toxicity (15 mg (n=5)): 2 (40.0) No. (%)
Dose modifications (dose adjustment or temporary interruption) because of drug-related TEAEs (48 patients): 52.1%
Dose modifications because of drug-related hypertension (48 patients): 22.9%
Drug-related grade 3 diarrhea (48 patients): 2.1%
Drug-related grade 3 hypertension (48 patients): 27.1%
Drug-related grade 3 nausea (48 patients): 2.1%
Drug-related grade 3 palmar-plantar erythrodysesthesia syndrome (48 patients): 2.1%
Drug-related grade 3 stomatitis (48 patients): 4.2%
Drug-related grade 4 or 5 TEAEs (48 patients): No drug-related grade 4 or 5 TEAEs were reported
Patients with drug-related grade 3 TEAEs (48 patients): 43.8%
Patients with drug-related serious adverse events (48 patients): 14.6%
Patients with study drug-related TEAEs (48 patients, all doses): 85.4%
Drug-related TEAE diarrhea (48 patients, any grade): 33.3%
Drug-related TEAE hypertension (48 patients, any grade): 50.0%
Drug-related TEAE nausea (48 patients, any grade): 22.9%
Drug-related TEAE palmar-plantar erythrodysesthesia syndrome (48 patients, any grade): 29.2%
Drug-related TEAE stomatitis (48 patients, any grade): 29.2%
Drug-related TEAE vomiting (48 patients, any grade): 20.8%
Maximum tolerated dose (MTD) (Bayesian model, doses 1-15 mg once daily): not reached
DLT: Hypertension (Total (n=32)): 2 (6.3) No. (%)
DLT: Palmar-plantar erythrodysesthesia syndrome (Total (n=32)): 1 (3.1) No. (%)
DLT: Skin and subcutaneous tissue disorders (Total (n=32)): 1 (3.1) No. (%)
DLT: Vascular disorders (Total (n=32)): 2 (6.3) No. (%)
Subjects who had a dose-limiting toxicity (Total (n=32)): 3 (9.4) No. (%)
Risk of grade ≥3 hypertension predicted by exposure-response model (all doses): < 25%
Patients with AE (combined 12 mg (n=20)): 20 (100) n (%)
Patients with TEAE (combined 12 mg (n=20)): 20 (100) n (%)
Patients with TEAE leading to death (combined 12 mg (n=20)): 0 n (%)
Patients with TEAE leading to dose adjustment/temporary interruption (combined 12 mg (n=20)): 15 (75.0) n (%)
Patients with TEAE leading to study drug permanent discontinuation (combined 12 mg (n=20)): 3 (15.0) n (%)
Patients with grade ≥3 TEAE (combined 12 mg (n=20)): 14 (70.0) n (%)
Patients with study drug-related TEAE (combined 12 mg (n=20)): 19 (95.0) n (%)
Patients with study drug-related TEAE leading to dose adjustment/temporary interruption (combined 12 mg (n=20)): 13 (65.0) n (%)
Patients with study drug-related TEAE leading to study drug permanent discontinuation (combined 12 mg (n=20)): 1 (5.0) n (%)
Patients with study drug-related grade ≥3 TEAE (combined 12 mg (n=20)): 11 (55.0) n (%)
Patients with study drug-related treatment-emergent SAE (combined 12 mg (n=20)): 3 (15.0) n (%)
Patients with treatment-emergent SAE (combined 12 mg (n=20)): 9 (45.0) n (%)
Patients with AE (dose escalation 1 mg (n=1)): 1 (100) n (%)
Patients with TEAE (dose escalation 1 mg (n=1)): 1 (100) n (%)
Patients with TEAE leading to death (dose escalation 1 mg (n=1)): 0 n (%)
Patients with TEAE leading to dose adjustment/temporary interruption (dose escalation 1 mg (n=1)): 0 n (%)
Patients with TEAE leading to study drug permanent discontinuation (dose escalation 1 mg (n=1)): 0 n (%)
Patients with grade ≥3 TEAE (dose escalation 1 mg (n=1)): 0 n (%)
Patients with study drug-related TEAE (dose escalation 1 mg (n=1)): 0 n (%)
Patients with study drug-related TEAE leading to dose adjustment/temporary interruption (dose escalation 1 mg (n=1)): 0 n (%)
Patients with study drug-related TEAE leading to study drug permanent discontinuation (dose escalation 1 mg (n=1)): 0 n (%)
Patients with study drug-related grade ≥3 TEAE (dose escalation 1 mg (n=1)): 0 n (%)
Patients with study drug-related treatment-emergent SAE (dose escalation 1 mg (n=1)): 0 n (%)
Patients with treatment-emergent SAE (dose escalation 1 mg (n=1)): 0 n (%)
Patients with AE (dose escalation 3 mg (n=1)): 1 (100) n (%)
Patients with TEAE (dose escalation 3 mg (n=1)): 1 (100) n (%)
Patients with TEAE leading to death (dose escalation 3 mg (n=1)): 0 n (%)
Patients with TEAE leading to dose adjustment/temporary interruption (dose escalation 3 mg (n=1)): 0 n (%)
Patients with TEAE leading to study drug permanent discontinuation (dose escalation 3 mg (n=1)): 0 n (%)
Patients with grade ≥3 TEAE (dose escalation 3 mg (n=1)): 0 n (%)
Patients with study drug-related TEAE (dose escalation 3 mg (n=1)): 0 n (%)
Patients with study drug-related TEAE leading to dose adjustment/temporary interruption (dose escalation 3 mg (n=1)): 0 n (%)
Patients with study drug-related TEAE leading to study drug permanent discontinuation (dose escalation 3 mg (n=1)): 0 n (%)
Patients with study drug-related grade ≥3 TEAE (dose escalation 3 mg (n=1)): 0 n (%)
Patients with study drug-related treatment-emergent SAE (dose escalation 3 mg (n=1)): 0 n (%)
Patients with treatment-emergent SAE (dose escalation 3 mg (n=1)): 0 n (%)
Patients with AE (dose escalation 5 mg (n=4)): 4 (100) n (%)
Patients with TEAE (dose escalation 5 mg (n=4)): 4 (100) n (%)
Patients with TEAE leading to death (dose escalation 5 mg (n=4)): 0 n (%)
Patients with TEAE leading to dose adjustment/temporary interruption (dose escalation 5 mg (n=4)): 2 (50.0) n (%)
Patients with TEAE leading to study drug permanent discontinuation (dose escalation 5 mg (n=4)): 0 n (%)
Patients with grade ≥3 TEAE (dose escalation 5 mg (n=4)): 1 (25.0) n (%)
Patients with study drug-related TEAE (dose escalation 5 mg (n=4)): 3 (75.0) n (%)
Patients with study drug-related TEAE leading to dose adjustment/temporary interruption (dose escalation 5 mg (n=4)): 1 (25.0) n (%)
Patients with study drug-related TEAE leading to study drug permanent discontinuation (dose escalation 5 mg (n=4)): 0 n (%)
Patients with study drug-related grade ≥3 TEAE (dose escalation 5 mg (n=4)): 1 (25.0) n (%)
Patients with study drug-related treatment-emergent SAE (dose escalation 5 mg (n=4)): 0 n (%)
Patients with treatment-emergent SAE (dose escalation 5 mg (n=4)): 0 n (%)
Patients with AE (dose escalation 8 mg (n=10)): 9 (90.0) n (%)
Patients with TEAE (dose escalation 8 mg (n=10)): 9 (90.0) n (%)
Patients with TEAE leading to death (dose escalation 8 mg (n=10)): 0 n (%)
Patients with TEAE leading to dose adjustment/temporary interruption (dose escalation 8 mg (n=10)): 5 (50.0) n (%)
Patients with TEAE leading to study drug permanent discontinuation (dose escalation 8 mg (n=10)): 2 (20.0) n (%)
Patients with grade ≥3 TEAE (dose escalation 8 mg (n=10)): 6 (60.0) n (%)
Patients with study drug-related TEAE (dose escalation 8 mg (n=10)): 8 (80.0) n (%)
Patients with study drug-related TEAE leading to dose adjustment/temporary interruption (dose escalation 8 mg (n=10)): 5 (50.0) n (%)
Patients with study drug-related TEAE leading to study drug permanent discontinuation (dose escalation 8 mg (n=10)): 1 (10.0) n (%)
Patients with study drug-related grade ≥3 TEAE (dose escalation 8 mg (n=10)): 4 (40.0) n (%)
Patients with study drug-related treatment-emergent SAE (dose escalation 8 mg (n=10)): 3 (30.0) n (%)
Patients with treatment-emergent SAE (dose escalation 8 mg (n=10)): 5 (50.0) n (%)
Patients with AE (dose escalation 10 mg (n=6)): 6 (100) n (%)
Patients with TEAE (dose escalation 10 mg (n=6)): 6 (100) n (%)
Patients with TEAE leading to death (dose escalation 10 mg (n=6)): 0 n (%)
Patients with TEAE leading to dose adjustment/temporary interruption (dose escalation 10 mg (n=6)): 5 (83.3) n (%)
Patients with TEAE leading to study drug permanent discontinuation (dose escalation 10 mg (n=6)): 4 (66.7) n (%)
Patients with grade ≥3 TEAE (dose escalation 10 mg (n=6)): 5 (83.3) n (%)
Patients with study drug-related TEAE (dose escalation 10 mg (n=6)): 6 (100) n (%)
Patients with study drug-related TEAE leading to dose adjustment/temporary interruption (dose escalation 10 mg (n=6)): 3 (50.0) n (%)
Patients with study drug-related TEAE leading to study drug permanent discontinuation (dose escalation 10 mg (n=6)): 4 (66.7) n (%)
Patients with study drug-related grade ≥3 TEAE (dose escalation 10 mg (n=6)): 2 (33.3) n (%)
Patients with study drug-related treatment-emergent SAE (dose escalation 10 mg (n=6)): 1 (16.7) n (%)
Patients with treatment-emergent SAE (dose escalation 10 mg (n=6)): 4 (66.7) n (%)
Patients with AE (dose escalation 12 mg (n=12)): 12 (100) n (%)
Patients with TEAE (dose escalation 12 mg (n=12)): 12 (100) n (%)
Patients with TEAE leading to death (dose escalation 12 mg (n=12)): 0 n (%)
Patients with TEAE leading to dose adjustment/temporary interruption (dose escalation 12 mg (n=12)): 8 (66.7) n (%)
Patients with TEAE leading to study drug permanent discontinuation (dose escalation 12 mg (n=12)): 3 (25.0) n (%)
Patients with grade ≥3 TEAE (dose escalation 12 mg (n=12)): 9 (75.0) n (%)
Patients with study drug-related TEAE (dose escalation 12 mg (n=12)): 11 (91.7) n (%)
Patients with study drug-related TEAE leading to dose adjustment/temporary interruption (dose escalation 12 mg (n=12)): 6 (50.0) n (%)
